Our source for the solubility and Papp A→B values is US20260273107A1, “COMPOUND PHARMACEUTICAL PREPARATION CONTAINING OIL COMPONENT COMPRISING POLYOXYETHYLENE STRUCTURE” (CHUGAI SEIYAKU KABUSHIKI KAISHA, priority 2022, published 2026).

SMILES strings stand for the structures. Converted amounts (≈) assume the structure as drawn. Where two headings read alike, the source gives them in different places. Numbered stars: 1 amine (or outer) side, 2 acyl side, 3 side chain; on linkers, the order of the positions; unused ones are H or OH. Bridge positions count the residues as written; N and C are the ends. Square brackets hold non-standard residues; d marks the D form. Peptide text beside a SMILES is read from it. * marks the point of attachment. hPhe(3-Cl-4-CF3) = N[C@@H](CCc1ccc(C(F)(F)F)c(Cl)c1)C(=O)O; X1 = CN(C(CC(=O)[*:2])C(=O)C1CCCCC1)[*:1]; Bta = N[C@@H](Cc1csc2ccccc12)C(=O)O; NMeCha = CN[C@@H](CC1CCCCC1)C(=O)O; NMeChg = CN[C@H](C(=O)O)C1CCCCC1; NMeF = CN[C@@H](Cc1ccccc1)C(=O)O; NMeI = CC[C@H](C)[C@H](NC)C(=O)O; NMeL = CN[C@@H](CC(C)C)C(=O)O; NMeV = CN[C@H](C(=O)O)C(C)C; NMeAbu = CC[C@H](NC)C(=O)O; NMeA = CN[C@@H](C)C(=O)O; Piperidide = C1CCN(*)CC1; Ac5c = NC1(C(=O)O)CCCC1; Sar = CNCC(=O)O; tBu = CC(C)(C)*

A short description of data set [1]: Solubility in the presence of a surfactant (Example 2-1). Format: physicochemical. The note with it: room temperature, stirred 20 hours. Here is the method: (§1) To lyophilized powder of the compound, a 50 mM phosphate buffer solution (PPB: Phosphate buffer, pH 6.5) was added, and after shaking (at room temperature, 1800 rpm, for 24 hours), the mixed solution was filtered through a filter, and the compound concentration of the filtrate was measured by LC/MS/MS. […] To the compound powder, Cremophor EL (CreEL) (manufactured by Sigma-Aldrich Co., Ltd., “Kolliphor EL”, generic name: polyoxyethylene castor oil, average number of moles of ethylene oxide added 35), Vitamin E TPGS (manufactured by Sigma-Aldrich Co., Ltd.), an aqueous solution containing 1% TW80 (manufactured by Nacalai Tesque, Inc.), an aqueous solution containing 1.5% Ploxamer 188 (manufactured by BASF SE), or an aqueous solution containing 0.5% Triton X-100 was added, the mixed solution was stirred (at room temperature, for 20 hours) with a stirrer, and then filtered through a filter, and the compound concentration of the filtrate was measured by LC/UV. Solubility (μg/mL) was calculated from the measured compound concentration. […] From the above, CreEL and Vitamin E TPGS were selected as substrates that improve solubility independently of compounds, and evaluation of oral absorbability was performed.

A short description of data set [2]: Evaluation of Caco-2 membrane permeability. In kind it is in vitro ADME. The conditions noted are these: human, Apical FaSSIF/HBSS pH 6.0 to Basal HBSS 4% BSA pH 7.4, 180 minutes, after 18 to 24 hours preincubation, read-out: Caco2 (Papp). On the procedure: The permeability coefficient (Caco-2 Papp (cm/sec)) is calculated using a numerical expression 1.
[formula] • where dQ/dt is the permeation rate of the drug (amount of drug appearing on the Basal side per unit time), S is the total cell surface area, and C1 (0) is the concentration of drug added on the Apical side.
Caco-2 cells were cultured on 96-well Transwell for 3 weeks, then DMEM, FaSSIF (1% DMSO), and the compound were added to the Apical side, DMEM was added to the Basal side, and the cells were preincubated under 5% CO2 at 37° C. with shaking at 80 rpm for 18 to 24 hours. After the preincubation, the preincubation solutions on the Apical side and Basal side were sucked off and washed, a FaSSIF/HBSS buffer solution (1% DMSO) (pH 6.0) containing the compound was added to the Apical side, a HBSS buffer solution (4% BSA) (pH 7.4) was added to the Basal side, and measurement of membrane permeability was started. Each well was shaken under 5% CO2 at 37° C. and 80 rpm, and at 180 minutes after the start of shaking, a sample on the Basal side was collected, and the permeation amount was measured by LC/MS. From the permeation amount, the membrane permeability coefficient (Papp) was calculated. Note that the description “Caco-2 (cm/sec)” in the column in the table herein is used synonymously with “Papp (cm/sec)”.

The nature of data set [3]: In vitro solubility evaluation in 50 mM phosphate buffer solution (PPB, pH 6.5), room temperature (Example 2-1). Format: physicochemical. The conditions noted are these: 50 mM phosphate buffer pH 6.5, room temperature, shaking 24 hours, no surfactant; read-out: solubilities, PPb. Here is the method: as §1
Data set [4] is described as follows: Solubility in aqueous solution containing 0.3% or 1% Cremophor EL (Example 3-3). The note with it: 25° C., 22 to 24 hours. Format: physicochemical. On the procedure: Evaluation of the solubility of the cyclic peptide compound in the presence of a surfactant was performed. To lyophilized powder of the compound, an aqueous solution containing 0.3% or 1% Cremophor EL (CreEL) was added, and after shaking (at 25° C., 1000 rpm, for 22 to 24 hours), the mixed solution was filtered through a filter, and the compound concentration of the filtrate was measured by LC/UV. Solubility (μg/mL) was calculated from the measured compound concentration.

Data set [5] is described as follows: Solubility of cyclic peptide compound in 50 mM phosphate buffer solution (pH 6.5), 37° C. (Example 3-3). In kind it is physicochemical. The conditions noted are these: shaking 22 to 24 hours, read-out: solubility in 50 mM phosphate buffer solution (PPB). Here is the method:
Evaluation of the solubility of the cyclic peptide compound was performed. To lyophilized powder of the compound, a 50 mM phosphate buffer solution (PPB: Phosphate buffer, pH 6.5) was added, and after shaking (at 37° C., 1800 rpm, for 22 to 24 hours), the mixed solution was filtered through a filter, and the compound concentration of the filtrate was measured by LC/MS/MS. Solubility was calculated from the measured compound concentration. The solubilities of the compounds 3, 4, 6, 7, and 8 were 11 μg/mL, 1 μg/mL, 1 μg/mL, 15 μg/mL, and 5 μg/mL, respectively.

The mark [6] stands for this setting: 0.5% Triton X-100 aqueous solution, read-out: solubilities, TritonX-100 (0.5% aqueous solution).
Setting [7] is: 1% Cremophor EL aqueous solution, read-out: solubilities, CreEL (1% aqueous solution).
Where [8] appears, read: 1% TW80 aqueous solution, read-out: solubilities, TW80 (1% aqueous solution).
The mark [9] stands for this setting: 1% Vitamin E TPGS aqueous solution, read-out: solubilities, VitaminE TPGS (1% aqueous solution).
The mark [10] stands for this setting: 1.5% Poloxamer 188 aqueous solution, read-out: solubilities, Poloxamer 188 (1.5% aqueous solution).
The mark [11] stands for this setting: 0.3% Cremophor EL aqueous solution, read-out: solubility, 0.3% Cremophor EL.
Where [12] appears, read: 1% Cremophor EL aqueous solution, read-out: solubility, 1% Cremophor EL.

For the compound `CC[C@H](C)[C@@H]1NC(=O)[C@H](CC(C)C)N(C)C(=O)CC(C(=O)C2CCCCC2)N(C)C(=O)[C@H](C2CCCCC2)N(C)C(=O)C2(CCCC2)NC(=O)[C@@H]2CCCN2C(=O)[C@H](CCc2ccc(C(F)(F)F)c(Cl)c2)NC(=O)CN(C)C(=O)[C@H](CC2CCCCC2)N(C)C(=O)CN(C)C(=O)CN(C)C1=O` (stereo partly shown) [Compound 1] (cyclo([Ac5c][NMeChg][X1][NMeL]I[Sar][Sar][NMeCha][Sar][hPhe(3-Cl-4-CF3)]P)), the solubility at 20 h was 743 µg/mL in data set [1] (setting [6]); 3380 µg/mL in data set [1] (setting [7]); 1270 µg/mL in data set [1] (setting [8]); 3100 µg/mL in data set [1] (setting [9]); below 13 µg/mL in data set [1] (setting [10]). Also, the Papp A→B at 180 min in data set [2] came out at 0.71 ×10⁻⁶ cm/s. For the same compound, the solubility at 24 h in data set [3] turned out to be 1 µg/mL (≈ 0.694 µM).
For `CC[C@H](C)[C@H]1C(=O)N[C@@H](COC(C)(C)C)C(=O)N(C)[C@@H](Cc2ccccc2)C(=O)N(C)[C@@H](C(C)C)C(=O)N[C@H](C(=O)N2CCCCC2)CC(=O)N(C)[C@@H](C)C(=O)N(C)[C@@H](Cc2ccccc2)C(=O)N[C@@H](CC(C)C)C(=O)N(C)[C@@H](CC(C)C)C(=O)N[C@@H]([C@@H](C)O)C(=O)N(C)CC(=O)N1C` [Compound 2] ([NMeA][NMeF]L[NMeL]T[Sar][NMeI]S(tBu)[NMeF][NMeV]D-Piperidide; lactam N-11), the solubility at 20 h in data set [1] (setting [6]) stood at 498 µg/mL; in data set [1] (setting [7]) it was 1050 µg/mL; in data set [1] (setting [8]) it was 707 µg/mL; in data set [1] (setting [9]), 1950 µg/mL; in data set [1] (setting [10]), 31 µg/mL. Besides, in data set [2], the Papp A→B at 180 min was determined as 5.99 ×10⁻⁶ cm/s. Moreover, the solubility at 24 h in data set [3] worked out at 11 µg/mL (≈ 7.94 µM).
Regarding `CC(C)C[C@@H]1NC(=O)[C@H](Cc2ccccc2)N(C)C(=O)[C@@H](C(C)C)NC(=O)C[C@@H](C(=O)N2CCCCC2)NC(=O)[C@H](C(C)C)N(C)C(=O)[C@H](Cc2ccccc2)N(C)C(=O)[C@H](COC(C)(C)C)NC(=O)[C@H](CC(C)C)N(C)C(=O)CN(C)C(=O)[C@H]([C@@H](C)O)NC(=O)[C@H](CC(C)C)N(C)C1=O` [Compound 3] ([dV][NMeF]L[NMeL]T[Sar][NMeL]S(tBu)[NMeF][NMeV]D-Piperidide; lactam N-11), the Papp A→B at 180 min in data set [2] was found to be 4.07 ×10⁻⁶ cm/s. Also, the results for the solubility in data set [4] (setting [11]), in data set [4] (setting [12]) and in data set [5] were 101 µg/mL (≈ 72.2 µM), 395 µg/mL (≈ 282 µM) and 11 µg/mL (≈ 7.86 µM), respectively.
Turning to `CC(C)C[C@@H]1NC(=O)[C@H](Cc2ccccc2)N(C)C(=O)[C@H](COC(C)(C)C)NC(=O)[C@H](Cc2ccccc2)N(C)C(=O)[C@H](C)N(C)C(=O)[C@H](CC(C)C)N(C)C(=O)[C@@H](C)NC(=O)C[C@@H](C(=O)N2CCCCC2)NC(=O)[C@H](Cc2ccccc2)N(C)C(=O)[C@H]([C@@H](C)O)NC(=O)[C@H](CC(C)C)N(C)C1=O` [Compound 4] ([dA][NMeL][NMeA][NMeF]S(tBu)[NMeF]L[NMeL]T[NMeF]D-Piperidide; lactam N-11), the Papp A→B at 180 min in data set [2] is 1.45 ×10⁻⁶ cm/s. Also, the solubility in data set [4] (setting [11]) worked out at 214 µg/mL (≈ 149 µM); in data set [4] (setting [12]), 789 µg/mL (≈ 550 µM); in data set [5] it was 1 µg/mL (≈ 0.697 µM).
On to `CC[C@H]1C(=O)N[C@@H](COC(C)(C)C)C(=O)N(C)[C@@H](Cc2ccccc2)C(=O)N(C)[C@@H](C)C(=O)N[C@H](C(=O)N2CCCCC2)CC(=O)N[C@H](CC(C)C)C(=O)N(C)[C@@H](CC(C)C)C(=O)N[C@@H](Cc2csc3ccccc23)C(=O)N(C)[C@@H](CC(C)C)C(=O)N[C@@H]([C@@H](C)O)C(=O)N(C)CC(=O)N1C` [Compound 5] ([dL][NMeL][Bta][NMeL]T[Sar][NMeAbu]S(tBu)[NMeF][NMeA]D-Piperidide; lactam N-11), for which the Papp A→B at 180 min in data set [2] came to 1.42 ×10⁻⁶ cm/s. Further, the solubility in data set [4] (setting [11]) worked out at 295 µg/mL (≈ 209 µM); in data set [4] (setting [12]), 1110 µg/mL (≈ 785 µM).
